Measured values: ChEMBL document CHEMBL3046316, “Synthesis and Acaricidal Activity of N-(1,3,4-Thiadiazol-2-yl)pyrazole-5-carboxamides and N-(1,3,4-Thiadiazol-2-yl)thiazole-5-carboxamides” (2003)

test system: Tetranychus urticae; assay: Acaricidal activity against Tetranychus urticae (two-spotted spider mite) assessed as mite mortality at 500 ppm relative to untreated control; format: functional

| SMILES | mortality at 500 ppm [%] |
| --- | --- |
| Cc1nc(C)c(C(=O)Nc2nnc(C(F)(F)C(F)(F)C(F)(F)F)s2)s1 | > 80 |
| CCc1nc(C)c(C(=O)Nc2nnc(C(F)(F)C(F)(F)C(F)(F)F)s2)s1 | < 80 |
| Cc1nc(C(C)C)sc1C(=O)Nc1nnc(C(F)(F)C(F)(F)C(F)(F)F)s1 | < 80 |
| Cc1nc(C(C)(C)C)sc1C(=O)Nc1nnc(C(F)(F)F)s1 | < 80 |
| Cn1nc(C(C)(C)C)cc1C(=O)Nc1nnc(C(F)(F)F)s1 | < 80 |
| Cn1nc(C(C)(C)C)c(I)c1C(=O)Nc1nnc(C(F)(F)F)s1 | < 80 |
| Cn1nc(C(C)(C)C)c(Cl)c1C(=O)Nc1nnc(C(F)F)s1 | < 80 |
| Cn1nc(C(C)(C)C)c(Cl)c1C(=O)Nc1nnc(C(F)(F)C(F)F)s1 | < 80 |
| Cn1nc(C(C)(C)C)c(Cl)c1C(=O)Nc1nnc(C(F)(F)C(F)(F)C(F)(F)C(F)(F)C(F)(F)C(F)(F)F)s1 | < 80 |
| Cn1nc(C2CC2)c(Cl)c1C(=O)Nc1nnc(C(F)(F)F)s1 | > 80 |
| CCCCc1nn(C)c(C(=O)Nc2nnc(C(F)(F)F)s2)c1Cl | > 80 |

test system: Tetranychus urticae; assay: Acaricidal activity against Tetranychus urticae (two-spotted spider mite) assessed as mite mortality at 200 ppm relative to untreated control; format: functional

| SMILES | mortality at 200 ppm [%] |
| --- | --- |
| CCC(C)c1nn(C)c(C(=O)Nc2nnc(C(F)(F)F)s2)c1Cl (stereo unspecified) | > 80 |
| Cn1nc(C(C)(C)C)c(Br)c1C(=O)Nc1nnc(C(F)(F)F)s1 | > 80 |
| Cc1nn(C)c(C(=O)Nc2nnc(C(F)(F)F)s2)c1Cl | > 80 |
| CCc1nn(C)c(C(=O)Nc2nnc(C(F)(F)F)s2)c1Cl | > 80 |
| CCCc1nn(C)c(C(=O)Nc2nnc(C(F)(F)F)s2)c1Cl | > 80 |
| CC(C)c1nn(C)c(C(=O)Nc2nnc(C(F)(F)F)s2)c1Cl | > 80 |
| CC(C)Cc1nn(C)c(C(=O)Nc2nnc(C(F)(F)F)s2)c1Cl | > 80 |

test system: Tetranychus urticae; assay: Acaricidal activity against Tetranychus urticae (two-spotted spider mite) assessed as mite mortality at 50 ppm relative to untreated control; format: functional

| SMILES | mortality at 50 ppm [%] |
| --- | --- |
| Cc1nc(C(C)(C)C)sc1C(=O)Nc1nnc(C(F)(F)C(F)(F)C(F)(F)F)s1 | > 80 |
| Cc1nc(C(C)(C)C)sc1C(=O)Nc1nnc(C(F)(F)C(F)(F)F)s1 | > 80 |
| Cc1nc(C(C)(C)C)sc1C(=O)Nc1nnc(C(F)(F)C(F)(F)C(F)(F)C(F)(F)F)s1 | > 80 |
| Cn1nc(C(C)(C)C)c(Cl)c1C(=O)Nc1nnc(C(F)(F)F)s1 | > 80 |
| Cn1nc(C(C)(C)C)c(Cl)c1C(=O)Nc1nnc(C(F)(F)C(F)(F)F)s1 | > 80 |
| Cn1nc(C(C)(C)C)c(Cl)c1C(=O)Nc1nnc(C(F)(F)C(F)(F)C(F)(F)F)s1 | > 80 |
| Cn1nc(C(C)(C)C)c(Cl)c1C(=O)Nc1nnc(C(F)(F)C(F)(F)C(F)(F)C(F)(F)F)s1 | > 80 |
| Cn1nc(C(C)(C)C)c(Cl)c1C(=O)Nc1nnc(C(F)(F)C(F)(F)C(F)(F)C(F)(F)C(F)(F)F)s1 | > 80 |
